Marks after values point to notes of the source that are not given here.
Key:
[1] = test system: mouse peritoneal macrophages; assay: Phagocytosis test of chicken red blood cell; format: in vivo, Kunming mice; conditions: intragastric once per day for four weeks, 300 mg/kg (Mannatide 20 mg/kg); for Phagotrophic percentage (%, X ± SD): chicken red blood cells phagocytized by 100 macrophages
Description: Kunming mice were randomly divided into seven groups according to gender and body weight, with 12 mice in each group. As the dose design, all groups received one intragastric administration per day at a dose of 0.4 ml/20 g for successive four weeks. Mice were weighed for two times per week, to adjust the drug dosage. 30 minutes after final administration, each mouse in each group was injected intraperitoneally with 5% chicken erythrocyte suspension at a dose of 1.0 ml/mouse. Six hours after injection, animals were sacrificed by cervical dislocation, and received 2 ml physiological saline via peritoneal injection, while the abdomen of mice was gently massaged. Then, one pin hole was cut in the center of peritoneum, and washing water in peritoneal cavity was extracted, dropped on microscope slide, and cultured for 30 min in incubator at 37° C. The solution was washed with normal saline, fixed using methanol, and dyed by Giemsa staining. The numbers of chicken red blood cell phagocytized by 100 macrophages were observed under oil immersion lens. The phagotrophic percentage and the phagotrophic index were calculated according to the following formula, and results were shown in Table 15. [formula] [formula]

[2] = test system: oxygen radicals; assay: Metabolism of in vivo oxygen radicals (serum SOD activity, MDA content); design: species or system C57BL/6 mice; conditions: blood serum, intragastric once per day for four weeks, 300 mg/kg (IFNa-2b 300 0000 IU)
Description: Experimental methods: C57BL/6 mice were randomly divided to eight groups as body weight, with 10 mice in each group. According to the dose design in Table 14, all groups received one intragastric administration per day at a dose of 0.4 ml/20 g for successive four weeks. Mice were weighed for two times per week, to adjust the drug dosage. On the last day of experiment, blood samples were drawn from femoral artery of animals and centrifuged to collect blood serum. Using TBA colorimetric method and xanthine oxidase method, application of sample was performed according to procedures of kit instructions, and absorbance values were measured at wavelengths of 532 nm and 550 nm using UV2300 Ultraviolet spectrophotometer. MDA content and SOD activity were calculated, respectively.

[3] = test system: mouse macrophages; assay: Carbon granules clearance test; format: in vivo, Kunming mice; conditions: once per day for four weeks, 300 mg/kg (Mannatide 20 mg/kg); for α value (X ± SD): corrected phagotrophic index; for K value (X ± SD): Indian ink via vena caudalis, blood at 1 and 5 min
Description: Kunming mice were randomly divided into seven groups according to gender and body weight, with 10 mice in each group. As the dose design in Table 14, all groups were administrated once per day at a dose of 0.4 ml/20 g for successive four weeks. Mice were weighed for two times per week, to adjust the drug dosage. One hour after final administration, each mouse in each group was injected with Indian ink [(1:4)0.1 ml·10 g^−1] via vena caudalis. […] After animals were sacrificed by cervical dislocation, liver and spleen were collected and weighed, to calculate the phagotrophic index K=(log OD^1−log OD2)/(t2−t1) and correct the phagotrophic index α=[body weight/(liver weight+spleen weight)]×K^1/3.

| Compound | Phagotrophic index (X ± SD) [1] | Phagotrophic percentage (%, X ± SD) [1] | MDA(nmol/L) (x ± s) ([2]; TBA colorimetric method) | SOD(U/L) (x ± s) ([2]; xanthine oxidase method) | α value (X ± SD) [3] | K value (X ± SD) [3] |
| --- | --- | --- | --- | --- | --- | --- |
| O=C(/C=C/c1ccc(O)c(O)c1)O[C@@H]1C[C@](O)(C(=O)O)C[C@@H](O)[C@H]1O [Chologenic acid, Chlorogenic acid] | 0.52 ± 0.07 | 36.58 ± 4.50 % | 27.14 ± 3.41 | 218.73 ± 25.32 ^ U/L | 3.94 ± 1.05 | 0.019 ± 0.011 |
| Mannatide [reference compound] | 0.57 ± 0.05***^ΔΔ | 40.32 ± 2.25***^ΔΔ % | – | – | 4.43 ± 1.06 | 0.019 ± 0.013 |

— patent US10238702B2, “Pharmaceutical composition, preparation method therefor and use thereof” (SICHUAN JIUZHANG BIOLOGICAL SCIENCE AND TECHNOLOGY CO., LTD, priority 2013, dated 2019)
